Results from patent EP3861991A1, “COMPOSITION FOR PREVENTING AND TREATING ACUTE AND CHRONIC WOUNDS” (Foodar Advanced Research S.r.l., priority 2020, dated 2021).

System: HDF cells
Test: Scratch assay: fibroblast cell migration and wound closure
Format: cell-based, Human
Settings: 10 µM, single components, Fig. 2
Procedure: Human dermal fibroblasts (HDF) (ATCC, Manassas, VA, USA) were grown in fibroblast basal medium supplemented with fibroblast growth kit-serum free (ATCC). Activation, proliferation and migration of fibroblasts are the primary steps in wound healing, where multiple cell types and other micro environmental factors are involved. Scratch assay is a widely applied In vitro technique for understanding the wound healing capabilities of medicinally important compounds. HDF cells were seeded in 6-well plates and were cultured overnight. Cells were then washed with Delbucco's Phosphate Buffered Saline (DPBS) and a scratch was made with a sterile 200µL tip. The detached cells and other cellular debris were removed by washing the cells with DPBS. The cells were treated with 10 µM of AND (source of Example 1), HYX (source of Example 1), or AND + HYX (1/1 ratio, same sources) and incubated for 24 h. Untreated cells were negative control. […] The experiments were performed in triplicate (n = 3). The width of the scratch and wound closure at different time intervals (0, 12, 24 and 48hrs) was analyzed by Image J software.

C=C1CC[C@@H]2[C@](C)(CO)[C@H](O)CC[C@@]2(C)[C@@H]1C/C=C1/C(=O)OC[C@H]1O [AND, 3-[2-[Decahydro-6-hydroxy-5-(hydroxymethyl)-5,8a-dimethyl-2-methylene-1-napthalenyl]ethylidene]dihydro-4-hydroxy-2(3H)-furanone] was tested, and the “percentage of cell migration (in words, relative to the AND+HYX combination)” value was “well lower”.
